This is an account of results in EP4763837A1, “PHOTOCHROMIC COMPOUND, CURABLE COMPOSITION, OPTICAL ARTICLE, LENS, AND EYEGLASSES” (TOKUYAMA CORPORATION, priority 2023, dated 2025).

Values joined by “and” are separate entries in the source; they are usually repeats but may differ in a detail not shown here. Equal entries are not always repeated.

This series is described as follows: Photochromic property of photochromic laminate made by coating method. It counts as physicochemical. The settings on record: for Residual ratio / Color developing density at 23°C: laminate by coating method; for Residual ratio: A96/A0 x 100 after 96 hours accelerated degradation, xenon weather meter X25; for Color developing density at 23°C: absorbance difference after 240 seconds irradiation at the maximum absorption wavelength of the same line. In short, it runs like this: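 Compound at 0.25 mmol per 100 g methacrylate monomer mix, spin-coated 40 µm on a primed thiourethane lens, photocured 90 s under N2, then 110°C for 1 h. λmax and A23 measured after 240 s irradiation at 23°C; τ1/2 is time to half-fade after irradiation stops. Residual ratio A96/A0 after 96 h xenon weathering.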

On to `CCCCCCC1(CC)c2ccccc2-c2c1c1c(c3cc(OC)c(N4CCOCC4)cc23)OC(c2ccc(OC)cc2)(c2ccc(OC)cc2)C=C1` (centres unmarked) [Formula (18-1)], for which the Residual ratio was 53% and 55%.

For the molecule `CCC1(OC)c2ccccc2-c2c1c1c(c3cc(OC)c(N4CCOCC4)cc23)OC(c2ccc(OC)cc2)(c2ccc(OC)cc2)C=C1` (centres unmarked) [Formula (B), reference compound], the “Color fading half-life at 23°C” value stood at 0.967 min; the Residual ratio was 37% and 41%; the “Color developing density at 23°C” value is 1.29 - and 0.70 -.

With `CCC1(C)c2ccccc2-c2c1c1c(c3cc(OC)c(N(C)c4ccccc4)cc23)OC(c2ccc(OC)cc2)(c2ccc(OC)cc2)C=C1` (centres unmarked) [Formula (9-1)], the “Color fading half-life at 23°C” value was 1.32 min, the Residual ratio was 71% and the “Color developing density at 23°C” value is 1.16 -.

As to `COc1ccc(C2(c3ccc(OC)cc3)C=Cc3c4c(c5cc(N6CCOCC6)c(OC)cc5c3O2)-c2ccccc2C4(C)C)cc1` [Formula (A), reference compound], the Residual ratio was 47% and 50%; the “Color developing density at 23°C” value is 1.65 - and 0.83 -.

Regarding `CCCCC1(CCC)c2ccccc2-c2c1c1c(c3cc(OC)c(N4CCOCC4)cc23)OC(c2ccc(OC)cc2)(c2ccc(OC)cc2)C=C1` (centres unmarked) [Formula (6-2)], the “Color fading half-life at 23°C” value worked out at 2 min; the Residual ratio is 55% and 58%.

Regarding `CCCC1(CC)c2ccccc2-c2c1c1c(c3cc(OC)c(N4CCOCC4)cc23)OC(c2ccc(OC)cc2)(c2ccc(OC)cc2)C=C1` (centres unmarked) [Formula (14-1)], the “Color fading half-life at 23°C” value is 1.83 min; the Residual ratio is 55% and 57%.

As to `CCCCCCCCCCCC1(C)c2ccccc2-c2c1c1c(c3cc(OC)c(N4CCOCC4)cc23)OC(c2ccc(OC)cc2)(c2ccc(OC)cc2)C=C1` (centres unmarked) [Formula (19-1)], the Residual ratio is 47% and 51%.
